Test results from patent publication US5849753A, “Pyridyl imidazole derivatives and processes for the preparation thereof” (Korea Research Institute of Chemical Technology, priority 1994, dated 1998).

Tests used:
renal hypertensive rat = assay: Blood pressure lowering effect on oral administration to rats at several doses; assay type: in vivo, male Sprague-Dawley rats
unanesthetized dogs = assay: Blood pressure lowering effect in unanesthetized dogs (furosemide treated); assay type: in vivo, dog; design: Maximum blood pressure lowering effect in a dog: unit not given here; conditions: oral; for Blood pressure variation with time: dogs, 1.0 mg
[1] = Metabolite analysis (enzyme digestion test); assay type: in vitro ADME, male rats; conditions: rat liver microsome and NADPH, 1 hour, 37° C.
Protocol: Enzyme digestion test was executed in order to detect the metabolite of the test compound in vivo.
A liver microsome and NADPH system of male rats were added to each of the present compound(Example 8) and the control compound(Merck), and the mixture was incubated for 1 hour at 37° C. The resultant was extracted with methanol or dichloromethane, and, thereafter, the organic layer was evaporated to obtain a residue. The residue was analyzed using high pressure liquid chromatography.

CCCCc1nc2cc(-c3ccccn3)c(C(OC)OC)nc2n1Cc1ccc(-c2ccccc2-c2nnn[nH]2)cc1 [Example 8, 2-butyl-5-dimethoxymethyl-6-(pyridin-2-yl)-3-[2'-(1H-tetrazol-5-yl)-biphenyl-4-ylmethyl]-3H-imidazo[4,5-b]pyridine]
blood pressure lowering effect (renal hypertensive rat; 1 mg/kg): 32% | blood pressure lowering effect (renal hypertensive rat; 3 mg/kg): 35-37% | Maximum blood pressure lowering effect in a dog (unanesthetized dogs; 0.1 mg/kg): 17 | Maximum blood pressure lowering effect in a dog (unanesthetized dogs; 0.3 mg/kg): 32 | Maximum blood pressure lowering effect in a dog (unanesthetized dogs; 1 mg/kg): 34 | Blood pressure variation with time (unanesthetized dogs; 0.5 hr): -32.7% | Blood pressure variation with time (unanesthetized dogs; 1 hr): -29.9% | Blood pressure variation with time (unanesthetized dogs; 2 hr): -33.0% | Blood pressure variation with time (unanesthetized dogs; 4 hr): -26.8% | Blood pressure variation with time (unanesthetized dogs; 6 hr): -25.0% | Blood pressure variation with time (unanesthetized dogs; 8 hr): -19.7% | metabolite from the enzymatic digestion ([1]; HPLC): no metabolite | stability against the enzymatic digestion ([1]; in contrast with the Merck compound): good stability
